Measurements: PubChem BioAssay (NCI)
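GI50 = concentration required for 50% inhibition of growth. TGI marks complete inhibition of growth.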

What was measured:
Assay in all cases: inhibition of tumour cell growth, NCI panel, 384-well format
NCI-H226 lung = test system: NCI-H226 lung
DU-145 prostate = test system: DU-145 prostate
NCI/ADR-RES ovarian = test system: NCI/ADR-RES ovarian
SN12C renal = test system: SN12C renal
T-47D breast = test system: T-47D breast
SK-MEL-5 melanoma = test system: SK-MEL-5 melanoma
MCF7 breast = test system: MCF7 breast
RXF 393 renal = test system: RXF 393 renal
SNB-19 CNS = test system: SNB-19 CNS
SF-268 CNS = test system: SF-268 CNS
NCI-H522 lung = test system: NCI-H522 lung
U251 glioblastoma = test system: U251 glioblastoma
TK-10 renal = test system: TK-10 renal
CCRF-CEM leukemia = test system: CCRF-CEM leukemia
HCC-2998 colon = test system: HCC-2998 colon
MDA-MB-435 melanoma = test system: MDA-MB-435 melanoma
NCI-H23 lung = test system: NCI-H23 lung
MOLT-4 leukemia = test system: MOLT-4 leukemia
HOP-62 NSCLC = test system: HOP-62 NSCLC
SK-MEL-28 melanoma = test system: SK-MEL-28 melanoma
M14 melanoma = test system: M14 melanoma
A498 renal = test system: A498 renal
OVCAR-3 ovarian = test system: OVCAR-3 ovarian
UACC-62 melanoma = test system: UACC-62 melanoma
OVCAR-8 ovarian = test system: OVCAR-8 ovarian
ACHN renal = test system: ACHN renal
HL-60(TB) leukemia = test system: HL-60(TB) leukemia
PC-3 prostate = test system: PC-3 prostate
IGROV1 ovarian = test system: IGROV1 ovarian
LOX IMVI melanoma = test system: LOX IMVI melanoma
SNB-75 CNS = test system: SNB-75 CNS
CAKI-1 renal = test system: CAKI-1 renal
RPMI-8226 leukemia = test system: RPMI-8226 leukemia
SW-620 colon = test system: SW-620 colon
OVCAR-4 ovarian = test system: OVCAR-4 ovarian
K-562 leukemia = test system: K-562 leukemia
HS 578T breast = test system: HS 578T breast
SF-295 CNS = test system: SF-295 CNS
SK-MEL-2 melanoma = test system: SK-MEL-2 melanoma
UACC-257 melanoma = test system: UACC-257 melanoma
HOP-92 NSCLC = test system: HOP-92 NSCLC
786-0 renal = test system: 786-0 renal
HT29 colon = test system: HT29 colon
KM12 colon = test system: KM12 colon
MDA-MB-468 breast = test system: MDA-MB-468 breast
A549 NSCLC = test system: A549 NSCLC
OVCAR-5 ovarian = test system: OVCAR-5 ovarian

`CC(=O)OC[C@H]1O[C@@H](n2ccc(=O)[nH]c2=O)[C@H](OC(C)=O)[C@@H]1OC(C)=O` showed a GI50 (NCI-H226 lung) of over 100 µM, a TGI (NCI-H226 lung) of over 100 µM and a GI50 (DU-145 prostate) of over 100 µM. For the same compound, the TGI (DU-145 prostate) was over 100 µM, the GI50 (NCI/ADR-RES ovarian) was over 100 µM and the TGI (NCI/ADR-RES ovarian) was over 100 µM. The GI50 (SN12C renal) was over 100 µM, the TGI (SN12C renal) was over 100 µM and the GI50 (T-47D breast) was over 100 µM. It also gave a TGI (T-47D breast) of over 100 µM, a GI50 (SK-MEL-5 melanoma) of over 100 µM and a TGI (SK-MEL-5 melanoma) of over 100 µM. For the same compound, the GI50 (MCF7 breast) was over 100 µM, the TGI (MCF7 breast) was over 100 µM and the GI50 (RXF 393 renal) was over 100 µM. For the same compound, the TGI (RXF 393 renal) was over 100 µM, the GI50 (SNB-19 CNS) was over 100 µM and the TGI (SNB-19 CNS) was over 100 µM. The GI50 (SF-268 CNS) was over 100 µM, the TGI (SF-268 CNS) was over 100 µM and the GI50 (NCI-H522 lung) was over 100 µM. The TGI (NCI-H522 lung) was over 100 µM, the GI50 (U251 glioblastoma) was over 100 µM and the TGI (U251 glioblastoma) was over 100 µM. The GI50 (TK-10 renal) was over 100 µM, the TGI (TK-10 renal) was over 100 µM and the GI50 (CCRF-CEM leukemia) was over 100 µM. For the same compound, the TGI (CCRF-CEM leukemia) was over 100 µM, the GI50 (HCC-2998 colon) was over 100 µM and the TGI (HCC-2998 colon) was over 100 µM. It also gave a GI50 (MDA-MB-435 melanoma) of over 100 µM, a TGI (MDA-MB-435 melanoma) of over 100 µM and a GI50 (NCI-H23 lung) of over 100 µM. The TGI (NCI-H23 lung) was over 100 µM, the GI50 (MOLT-4 leukemia) was over 100 µM and the TGI (MOLT-4 leukemia) was over 100 µM. For the same compound, the GI50 (HOP-62 NSCLC) was over 100 µM, the TGI (HOP-62 NSCLC) was over 100 µM and the GI50 (SK-MEL-28 melanoma) was over 100 µM. It also gave a TGI (SK-MEL-28 melanoma) of over 100 µM, a GI50 (M14 melanoma) of over 100 µM and a TGI (M14 melanoma) of over 100 µM. For the same compound, the GI50 (A498 renal) was over 100 µM, the TGI (A498 renal) was over 100 µM and the GI50 (OVCAR-3 ovarian) was over 100 µM. It also gave a TGI (OVCAR-3 ovarian) of over 100 µM, a GI50 (UACC-62 melanoma) of over 100 µM and a TGI (UACC-62 melanoma) of over 100 µM. It also gave a GI50 (OVCAR-8 ovarian) of over 100 µM, a TGI (OVCAR-8 ovarian) of over 100 µM and a GI50 (ACHN renal) of over 100 µM. For the same compound, the TGI (ACHN renal) was over 100 µM, the GI50 (HL-60(TB) leukemia) was over 100 µM and the TGI (HL-60(TB) leukemia) was over 100 µM. For the same compound, the GI50 (PC-3 prostate) was over 100 µM, the TGI (PC-3 prostate) was over 100 µM and the GI50 (IGROV1 ovarian) was over 100 µM. For the same compound, the TGI (IGROV1 ovarian) was over 100 µM, the GI50 (LOX IMVI melanoma) was over 100 µM and the TGI (LOX IMVI melanoma) was over 100 µM. For the same compound, the GI50 (SNB-75 CNS) was over 100 µM, the TGI (SNB-75 CNS) was over 100 µM and the GI50 (CAKI-1 renal) was over 100 µM. It also gave a TGI (CAKI-1 renal) of over 100 µM, a GI50 (RPMI-8226 leukemia) of over 100 µM and a TGI (RPMI-8226 leukemia) of over 100 µM. The GI50 (SW-620 colon) was over 100 µM, the TGI (SW-620 colon) was over 100 µM and the GI50 (OVCAR-4 ovarian) was over 100 µM. For the same compound, the TGI (OVCAR-4 ovarian) was over 100 µM, the GI50 (K-562 leukemia) was over 100 µM and the TGI (K-562 leukemia) was over 100 µM. The GI50 (HS 578T breast) was over 100 µM, the TGI (HS 578T breast) was over 100 µM and the GI50 (SF-295 CNS) was over 100 µM. The TGI (SF-295 CNS) was over 100 µM, the GI50 (SK-MEL-2 melanoma) was over 100 µM and the TGI (SK-MEL-2 melanoma) was over 100 µM. It also gave a GI50 (UACC-257 melanoma) of over 100 µM, a TGI (UACC-257 melanoma) of over 100 µM and a GI50 (HOP-92 NSCLC) of over 100 µM. For the same compound, the TGI (HOP-92 NSCLC) was over 100 µM, the GI50 ([…]-0 renal) was over 100 µM and the TGI (786-0 renal) was over 100 µM. The GI50 (HT29 colon) was over 100 µM, the TGI (HT29 colon) was over 100 µM and the GI50 (KM12 colon) was over 100 µM. It also gave a TGI (KM12 colon) of over 100 µM, a GI50 (MDA-MB-468 breast) of over 100 µM and a TGI (MDA-MB-468 breast) of over 100 µM. The GI50 (A549 NSCLC) was over 100 µM, the TGI (A549 NSCLC) was over 100 µM and the GI50 (OVCAR-5 ovarian) was over 100 µM. For the same compound, the TGI (OVCAR-5 ovarian) was over 100 µM.
`C#Cc1cccc(Nc2ncnc3cc(OCCOC)c(OCCOC)cc23)c1` showed a GI50 (NCI-H226 lung) of 9.26 µM, a TGI (NCI-H226 lung) of over 100 µM and a GI50 (DU-145 prostate) of 1.98 µM. For the same compound, the TGI (DU-145 prostate) was over 100 µM, the GI50 (NCI/ADR-RES ovarian) was 12.6 µM and the TGI (NCI/ADR-RES ovarian) was over 100 µM. The GI50 (SN12C renal) was 3.79 µM, the TGI (SN12C renal) was over 100 µM and the GI50 (T-47D breast) was 6.56 µM. It also gave a TGI (T-47D breast) of over 89 µM, a GI50 (SK-MEL-5 melanoma) of 1.94 µM and a TGI (SK-MEL-5 melanoma) of over 26.3 µM. It also gave a GI50 (MCF7 breast) of over 100 µM, a TGI (MCF7 breast) of over 100 µM and a GI50 (RXF 393 renal) of 7.83 µM. It also gave a TGI (RXF 393 renal) of over 27.3 µM, a GI50 (SNB-19 CNS) of over 100 µM and a TGI (SNB-19 CNS) of over 100 µM. The GI50 (SF-268 CNS) was 21.2 µM, the TGI (SF-268 CNS) was over 72.3 µM and the GI50 (NCI-H522 lung) was 0.433 µM. The TGI (NCI-H522 lung) was 3.47 µM, the GI50 (U251 glioblastoma) was 43.4 µM and the TGI (U251 glioblastoma) was over 100 µM. The GI50 (TK-10 renal) was 0.849 µM, the TGI (TK-10 renal) was over 100 µM and the GI50 (CCRF-CEM leukemia) was 11.2 µM. The TGI (CCRF-CEM leukemia) was over 100 µM, the GI50 (HCC-2998 colon) was 48.4 µM and the TGI (HCC-2998 colon) was over 100 µM. For the same compound, the GI50 (MDA-MB-435 melanoma) was over 100 µM, the TGI (MDA-MB-435 melanoma) was over 100 µM and the GI50 (NCI-H23 lung) was 25.2 µM. The TGI (NCI-H23 lung) was over 100 µM, the GI50 (MOLT-4 leukemia) was 7.14 µM and the TGI (MOLT-4 leukemia) was over 51.9 µM. For the same compound, the GI50 (HOP-62 NSCLC) was 28.5 µM, the TGI (HOP-62 NSCLC) was over 100 µM and the GI50 (SK-MEL-28 melanoma) was over 85.1 µM. For the same compound, the TGI (SK-MEL-28 melanoma) was over 100 µM, the GI50 (M14 melanoma) was 6.72 µM and the TGI (M14 melanoma) was over 100 µM. The GI50 (A498 renal) was 1.97 µM, the TGI (A498 renal) was over 100 µM and the GI50 (OVCAR-3 ovarian) was 4.02 µM. The TGI (OVCAR-3 ovarian) was over 100 µM, the GI50 (UACC-62 melanoma) was 6.74 µM and the TGI (UACC-62 melanoma) was over 90.5 µM. The GI50 (OVCAR-8 ovarian) was 7.75 µM, the TGI (OVCAR-8 ovarian) was over 100 µM and the GI50 (ACHN renal) was 0.329 µM. For the same compound, the TGI (ACHN renal) was over 25.8 µM, the GI50 (HL-60(TB) leukemia) was 6.29 µM and the TGI (HL-60(TB) leukemia) was over 43.1 µM. For the same compound, the GI50 (PC-3 prostate) was 23 µM, the TGI (PC-3 prostate) was over 100 µM and the GI50 (IGROV1 ovarian) was 0.385 µM. The TGI (IGROV1 ovarian) was 5.62 µM, the GI50 (LOX IMVI melanoma) was 7.97 µM and the TGI (LOX IMVI melanoma) was over 100 µM. For the same compound, the GI50 (SNB-75 CNS) was 8 µM, the TGI (SNB-75 CNS) was 50.5 µM and the GI50 (CAKI-1 renal) was 1.83 µM. For the same compound, the TGI (CAKI-1 renal) was 8.89 µM, the GI50 (RPMI-8226 leukemia) was 7.94 µM and the TGI (RPMI-8226 leukemia) was over 88.4 µM. The GI50 (SW-620 colon) was over 100 µM, the TGI (SW-620 colon) was over 100 µM and the GI50 (OVCAR-4 ovarian) was 32 µM. It also gave a TGI (OVCAR-4 ovarian) of over 100 µM, a GI50 (K-562 leukemia) of 7.57 µM and a TGI (K-562 leukemia) of over 100 µM. It also gave a GI50 (HS 578T breast) of 3.85 µM, a TGI (HS 578T breast) of 45.8 µM and a GI50 (SF-295 CNS) of over 51.9 µM. For the same compound, the TGI (SF-295 CNS) was over 100 µM, the GI50 (SK-MEL-2 melanoma) was 8.78 µM and the TGI (SK-MEL-2 melanoma) was over 100 µM. The GI50 (UACC-257 melanoma) was 96.9 µM, the TGI (UACC-257 melanoma) was over 100 µM and the GI50 (HOP-92 NSCLC) was 11.9 µM. For the same compound, the TGI (HOP-92 NSCLC) was over 96.6 µM, the GI50 ([…]-0 renal) was 6.46 µM and the TGI (786-0 renal) was over 100 µM. It also gave a GI50 (HT29 colon) of over 90.8 µM, a TGI (HT29 colon) of over 100 µM and a GI50 (KM12 colon) of over 27.8 µM. The TGI (KM12 colon) was over 100 µM, the GI50 (MDA-MB-468 breast) was 0.183 µM and the TGI (MDA-MB-468 breast) was 0.777 µM. For the same compound, the GI50 (A549 NSCLC) was 3.72 µM, the TGI (A549 NSCLC) was over 100 µM and the GI50 (OVCAR-5 ovarian) was 6.96 µM. It also gave a TGI (OVCAR-5 ovarian) of over 100 µM.
